Measured values: ChEMBL document CHEMBL4396937, “Synthesis of new triazole fused imidazo[2,1-b]thiazole hybrids with emphasis on Staphylococcus aureus virulence factors” (Bioorg Med Chem Lett, 2019)
In brackets after ≈: the same amount, converted by molar mass.

Experiments:
Format in all cases: functional
Bacillus subtilis [1] = experiment: Antibacterial activity against Bacillus subtilis MTCC 121 assessed as reduction in bacterial growth incubated for 24 hrs by agar well diffusion method; conditions: MTCC 121, 24 h
Staphylococcus aureus [2] = experiment: Antibacterial activity against Staphylococcus aureus MLS-16 MTCC 2940 assessed as reduction in bacterial growth incubated for 24 hrs by agar well diffusion method; conditions: MLS-16 MTCC 2940, 24 h
Micrococcus luteus [3] = experiment: Antibacterial activity against Micrococcus luteus MTCC 2470 assessed as reduction in bacterial growth incubated for 24 hrs by agar well diffusion method; conditions: MTCC 2470, 24 h
Staphylococcus aureus [4] = experiment: Antibacterial activity against Staphylococcus aureus MTCC 96 assessed as reduction in bacterial growth incubated for 24 hrs by agar well diffusion method; conditions: MTCC 96, 24 h
Escherichia coli [5] = experiment: Antibacterial activity against Escherichia coli MTCC 739 assessed as reduction in bacterial growth incubated for 24 hrs by agar well diffusion method; conditions: MTCC 739, 24 h
Pseudomonas aeruginosa [6] = experiment: Antibacterial activity against Pseudomonas aeruginosa MTCC 2453 assessed as reduction in bacterial growth incubated for 24 hrs by agar well diffusion method; conditions: MTCC 2453, 24 h
Raoultella planticola [7] = experiment: Antibacterial activity against Klebsiella planticola MTCC 530 assessed as reduction in bacterial growth incubated for 24 hrs by agar well diffusion method; conditions: MTCC 530, 24 h
Candida albicans [8] = experiment: Antifungal activity against Candida albicans MTCC 3017 assessed as reduction in fungal growth incubated for 24 hrs by agar well diffusion method; conditions: MTCC 3017, 24 h
Bacillus subtilis [9] = experiment: Bactericidal activity against Bacillus subtilis MTCC 121 assessed as reduction in bacterial survival incubated for 24 hrs followed by transfer of microbial suspension to agar plates and measured at 24 hrs post transfer by agar well diffusion method; conditions: MTCC 121, 24 h
Staphylococcus aureus [10] = experiment: Bactericidal activity against Staphylococcus aureus MLS-16 MTCC 2940 assessed as reduction in bacterial survival incubated for 24 hrs followed by transfer of microbial suspension to agar plates and measured at 24 hrs post transfer by agar well diffusion method; conditions: MLS-16 MTCC 2940, 24 h
Micrococcus luteus [11] = experiment: Bactericidal activity against Micrococcus luteus MTCC 2470 assessed as reduction in bacterial survival incubated for 24 hrs followed by transfer of microbial suspension to agar plates and measured at 24 hrs post transfer by agar well diffusion method; conditions: MTCC 2470, 24 h
Staphylococcus aureus [12] = experiment: Bactericidal activity against Staphylococcus aureus MTCC 96 assessed as reduction in bacterial survival incubated for 24 hrs followed by transfer of microbial suspension to agar plates and measured at 24 hrs post transfer by agar well diffusion method; conditions: MTCC 96, 24 h
Escherichia coli [13] = experiment: Bactericidal activity against Escherichia coli MTCC 739 assessed as reduction in bacterial survival incubated for 24 hrs followed by transfer of microbial suspension to agar plates and measured at 24 hrs post transfer by agar well diffusion method; conditions: MTCC 739, 24 h
Pseudomonas aeruginosa [14] = experiment: Bactericidal activity against Pseudomonas aeruginosa MTCC 2453 assessed as reduction in bacterial survival incubated for 24 hrs followed by transfer of microbial suspension to agar plates and measured at 24 hrs post transfer by agar well diffusion method; conditions: MTCC 2453, 24 h
Raoultella planticola [15] = experiment: Bactericidal activity against Klebsiella planticola MTCC 530 assessed as reduction in bacterial survival incubated for 24 hrs followed by transfer of microbial suspension to agar plates and measured at 24 hrs post transfer by agar well diffusion method; conditions: MTCC 530, 24 h
Candida albicans [16] = experiment: Fungicidal activity against Candida albicans MTCC 3017 assessed as reduction in fungal survival incubated for 24 hrs followed by transfer of microbial suspension to agar plates and measured at 24 hrs post transfer by agar well diffusion method; conditions: MTCC 3017, 24 h

SMILES	MIC (Bacillus subtilis [1]) [µg/mL]	MIC (Staphylococcus aureus [2]) [µg/mL]	MIC (Micrococcus luteus [3]) [µg/mL]	MIC (Staphylococcus aureus [4]) [µg/mL]	MIC (Escherichia coli [5]) [µg/mL]	MIC (Pseudomonas aeruginosa [6]) [µg/mL]	MIC (Raoultella planticola [7]) [µg/mL]	MIC (Candida albicans [8]) [µg/mL]	MBC (Bacillus subtilis [9]) [µg/mL]	MBC (Staphylococcus aureus [10]) [µg/mL]	MBC (Micrococcus luteus [11]) [µg/mL]	MBC (Staphylococcus aureus [12]) [µg/mL]	MBC (Escherichia coli [13]) [µg/mL]	MBC (Pseudomonas aeruginosa [14]) [µg/mL]	MBC (Raoultella planticola [15]) [µg/mL]	MFC (Candida albicans [16]) [µg/mL]
COc1ccc(-c2nc3sccn3c2C(=O)c2cn(-c3ccc(C(F)(F)F)cc3)nn2)cc1	15.6 (≈ 33.2 µM)	15.6 (≈ 33.2 µM)	7.8 (≈ 16.6 µM)	15.6 (≈ 33.2 µM)	> 125	> 125	> 125	7.8 (≈ 16.6 µM)	31.2 (≈ 66.5 µM)	31.2 (≈ 66.5 µM)	15.6 (≈ 33.2 µM)	31.2 (≈ 66.5 µM)	> 125	> 125	> 125	15.6 (≈ 33.2 µM)
COc1ccc(-c2nc3sccn3c2C(=O)c2cn(-c3ccc(OC)cc3)nn2)cc1	7.8 (≈ 18.1 µM)	7.8 (≈ 18.1 µM)	15.6 (≈ 36.2 µM)	15.6 (≈ 36.2 µM)	> 125	> 125	7.8 (≈ 18.1 µM)	15.6 (≈ 36.2 µM)	15.6 (≈ 36.2 µM)	15.6 (≈ 36.2 µM)	31.2 (≈ 72.3 µM)	31.2 (≈ 72.3 µM)	> 125	> 125	15.6 (≈ 36.2 µM)	31.2 (≈ 72.3 µM)
O=C(c1cn(-c2ccc(F)cc2Br)nn1)c1c(-c2ccc(Cl)cc2)nc2sccn12	3.9 (≈ 7.76 µM)	7.8 (≈ 15.5 µM)	3.9 (≈ 7.76 µM)	3.9 (≈ 7.76 µM)	> 125	> 125	3.9 (≈ 7.76 µM)	7.8 (≈ 15.5 µM)	7.8 (≈ 15.5 µM)	15.6 (≈ 31 µM)	7.8 (≈ 15.5 µM)	7.8 (≈ 15.5 µM)	> 125	> 125	7.8 (≈ 15.5 µM)	15.6 (≈ 31 µM)
COc1cc(-n2cc(C(=O)c3c(-c4ccccc4)nc4sccn34)nn2)cc(OC)c1OC	3.9 (≈ 8.45 µM)	7.8 (≈ 16.9 µM)	3.9 (≈ 8.45 µM)	3.9 (≈ 8.45 µM)	> 125	> 125	31.2 (≈ 67.6 µM)	15.6 (≈ 33.8 µM)	7.8 (≈ 16.9 µM)	15.6 (≈ 33.8 µM)	7.8 (≈ 16.9 µM)	7.8 (≈ 16.9 µM)	> 125	> 125	62.5 (≈ 135 µM)	31.2 (≈ 67.6 µM)
O=C(c1cn(-c2ccc(F)cc2)nn1)c1c(-c2ccc(Cl)cc2)nc2sccn12	3.9 (≈ 9.2 µM)	7.8 (≈ 18.4 µM)	3.9 (≈ 9.2 µM)	3.9 (≈ 9.2 µM)	> 125	> 125	7.8 (≈ 18.4 µM)	15.6 (≈ 36.8 µM)	7.8 (≈ 18.4 µM)	15.6 (≈ 36.8 µM)	7.8 (≈ 18.4 µM)	7.8 (≈ 18.4 µM)	> 125	> 125	15.6 (≈ 36.8 µM)	> 125
COc1cc(-n2cc(C(=O)c3c(-c4ccc(Cl)cc4)nc4sccn34)nn2)cc(OC)c1OC	3.9 (≈ 7.86 µM)	7.8 (≈ 15.7 µM)	15.6 (≈ 31.5 µM)	7.8 (≈ 15.7 µM)	> 125	> 125	> 125	15.6 (≈ 31.5 µM)	7.8 (≈ 15.7 µM)	15.6 (≈ 31.5 µM)	31.2 (≈ 62.9 µM)	15.6 (≈ 31.5 µM)	> 125	> 125	> 125	31.2 (≈ 62.9 µM)
COc1ccc(-c2nc3sccn3c2C(=O)c2cn(-c3ccc(Cl)cc3)nn2)cc1	3.9 (≈ 8.95 µM)	7.8 (≈ 17.9 µM)	3.9 (≈ 8.95 µM)	3.9 (≈ 8.95 µM)	> 125	> 125	> 125	15.6 (≈ 35.8 µM)	7.8 (≈ 17.9 µM)	15.6 (≈ 35.8 µM)	7.8 (≈ 17.9 µM)	7.8 (≈ 17.9 µM)	> 125	> 125	> 125	31.2 (≈ 71.6 µM)
COc1ccc(-c2nc3sccn3c2C(=O)c2cn(-c3ccc(Br)cc3)nn2)cc1	7.8 (≈ 16.2 µM)	7.8 (≈ 16.2 µM)	7.8 (≈ 16.2 µM)	3.9 (≈ 8.12 µM)	> 125	> 125	15.6 (≈ 32.5 µM)	7.8 (≈ 16.2 µM)	15.6 (≈ 32.5 µM)	15.6 (≈ 32.5 µM)	15.6 (≈ 32.5 µM)	7.8 (≈ 16.2 µM)	> 125	> 125	31.2 (≈ 65 µM)	15.6 (≈ 32.5 µM)
